Results taken from US9951026B2, “Heterocyclic vinyl autotaxin inhibitor compounds” (PharmAkea, Inc., priority 2013, dated 2018).
Read-outs that look alike come from different tables or passages of the source.

Molecular target: human autotaxin (Homo sapiens (Human), UniProt Q13822)
Experiment: Human Autotaxin Assay
Format: biochemical
Procedure: ATX activity is assayed in concentrated conditioned media from Hep3B human hepatocellular carcinoma cells by measuring the amount of choline released from the substrate, lysophosphatidylcholine (LPC) as it is cleaved to LPA. Conditioned media is collected from confluent Hep3B cells and concentrated 20-fold using Centriprep-30 filter devices (Millipore). […] 100 μl of a color mix containing 4.5 mM 4-aminoantipyrine, 2.7 mM N-ethyl-N-(2-hydroxy-3-sulfopropyl)-m-toluidine, 21 units/ml horseradish peroxidase and 3 units/ml choline oxidase in 50 mM Tris, pH 8, 4.5 mM MgCl2 is added and the incubation continued for 15 minutes at room temperature before reading the absorbance at 555 nm.

[1] = ATX in concentrated conditioned media from Hep3B cells, choline released from LPC substrate, read-out: IC50

IC50 [1] | SMILES | IC50
< 0.5 µM | N#C/C(=C\c1nn(Cc2ccc(F)cc2)c2cc(Cl)ccc12)c1ccc(C(=O)O)cc1 [Compound 1-1, (Z)-4-(2-(6-chloro-1-(4-fluorobenzyl)-1H-indazol-3-yl)-1-cyanovinyl)benzoic acid] | 
< 0.5 µM | N#C/C(=C\c1nn(Cc2ccccc2)c2cc(Cl)ccc12)c1ccc(C(=O)O)cc1 [Compound 1-2, (Z)-4-(2-(1-benzyl-6-chloro-1H-indazol-3-yl)-1-cyanovinyl)benzoic acid] | 
0.5 to 10 µM | N#C/C(=C\c1nn(Cc2cc(Cl)cc(Cl)c2)c2cc(Cl)ccc12)c1ccc(C(=O)O)cc1 [Compound 1-3] | 
0.5 to 10 µM | N#C/C(=C\c1nn(Cc2cc(C(F)(F)F)cc(C(F)(F)F)c2)c2cc(Cl)ccc12)c1ccc(C(=O)O)cc1 [Compound 1-4, (Z)-4-(2-(1-(3,5-bis(trifluoromethyl)benzyl)-6-chloro-1H-indazol-3-yl)-1-cyanovinyl)benzoic acid] | 
> 10 µM | Cn1ccc(Cn2nc(/C=C(\C#N)c3ccc(C(=O)O)cc3)c3ccc(Cl)cc32)n1 [Compound 1-5, (Z)-4-(2-(6-chloro-1-((1-methyl-1H-pyrazol-3-yl)methyl)-1H-indazol-3-yl)-1-cyanovinyl)benzoic acid] | 
< 0.5 µM | N#C/C(=C\c1nn(Cc2ccc(Cl)nc2)c2cc(Cl)ccc12)c1ccc(C(=O)O)cc1 [Compound 1-6, (Z)-4-(2-(6-chloro-1-((6-chloropyridin-3-yl)methyl)-1H-indazol-3-yl)-1-cyanovinyl)benzoic acid] | 
< 0.5 µM | COc1ccc(Cn2nc(/C=C(\C#N)c3ccc(C(=O)O)cc3)c3ccc(Cl)cc32)cn1 [Compound 1-7, (Z)-4-(2-(6-chloro-1-((6-methoxypyridin-3-yl)methyl)-1H-indazol-3-yl)-1-cyanovinyl)benzoic acid] | 
0.5 to 10 µM | O=C(O)c1ccc(/C=C/c2nn(Cc3ccc(F)cc3)c3cc(Cl)ccc23)cc1 [Compound 1-8, (E)-4-(2-(6-chloro-1-(4-fluorobenzyl)-1H-indazol-3-yl)vinyl)benzoic acid] | 
< 0.5 µM | N#C/C(=C\c1cn(Cc2ccc(F)cc2)c2ncccc12)c1ccc(C(=O)O)cc1 [Compound 3-1, (Z)-4-(1-cyano-2-(1-(4-fluorobenzyl)-1H-pyrrolo[2,3-b]pyridin-3-yl)vinyl)benzoic acid] | 
0.5 to 10 µM | COc1ccc(Cn2cc(/C=C(\C#N)c3ccc(C(=O)O)cc3)c3cccnc32)cn1 [Compound 3-2, (Z)-4-(1-cyano-2-(1-((6-methoxypyridin-3-yl)methyl)-1H-pyrrolo[2,3-b]pyridin-3-yl)vinyl)benzoic acid] | 
 | N#C/C(=C\c1cn(Cc2ccc(F)cc2)c2nc(Cl)ccc12)c1ccc(C(=O)O)cc1 [Compound 3-3, (Z)-4-(2-(6-chloro-1-(4-fluorobenzyl)-1H-pyrrolo[2,3-b]pyridin-3-yl)-1-cyanovinyl)benzoic acid] | 0.5 to 10 µM
< 0.5 µM | COc1ccc(Cn2cc(/C=C(\C#N)c3ccc(C(=O)O)cc3)c3ccc(Cl)nc32)cn1 [Compound 3-4, (Z)-4-(2-(6-chloro-1-((6-methoxypyridin-3-yl)methyl)-1H-pyrrolo[2,3-b]pyridin-3-yl)-1-cyanovinyl)benzoic acid] | 
> 10 µM | CCCn1cc(-n2c(C)c(/C=C(\C#N)c3ccc(C(=O)O)cc3)c3ccsc32)cn1 [Compound 5-1, (Z)-4-(1-cyano-2-(5-methyl-6-(1-propyl-1H-pyrazol-4-yl)-6H-thieno[2,3-b]pyrrol-4-yl)vinyl)benzoic acid] | 
